Laboratory results: US12643910B2, “Substituted pyrazolo[3,4-b]pyridines as ectonucleotide pyrophosphatase/phosphodiesterase 1 (ENPP1) modulators” (SANFORD BURNHAM PREBYS MEDICAL DISCOVERY INSTITUTE, priority 2019, dated 2026)

Assays:
ENPP3 = target: T1, ENPP3 (Homo sapiens, UniProt O14638); assay: ENPP3 Km ATP assay; assay type: biochemical; details: ATP at Km
T1 sequence (O14638 1-875): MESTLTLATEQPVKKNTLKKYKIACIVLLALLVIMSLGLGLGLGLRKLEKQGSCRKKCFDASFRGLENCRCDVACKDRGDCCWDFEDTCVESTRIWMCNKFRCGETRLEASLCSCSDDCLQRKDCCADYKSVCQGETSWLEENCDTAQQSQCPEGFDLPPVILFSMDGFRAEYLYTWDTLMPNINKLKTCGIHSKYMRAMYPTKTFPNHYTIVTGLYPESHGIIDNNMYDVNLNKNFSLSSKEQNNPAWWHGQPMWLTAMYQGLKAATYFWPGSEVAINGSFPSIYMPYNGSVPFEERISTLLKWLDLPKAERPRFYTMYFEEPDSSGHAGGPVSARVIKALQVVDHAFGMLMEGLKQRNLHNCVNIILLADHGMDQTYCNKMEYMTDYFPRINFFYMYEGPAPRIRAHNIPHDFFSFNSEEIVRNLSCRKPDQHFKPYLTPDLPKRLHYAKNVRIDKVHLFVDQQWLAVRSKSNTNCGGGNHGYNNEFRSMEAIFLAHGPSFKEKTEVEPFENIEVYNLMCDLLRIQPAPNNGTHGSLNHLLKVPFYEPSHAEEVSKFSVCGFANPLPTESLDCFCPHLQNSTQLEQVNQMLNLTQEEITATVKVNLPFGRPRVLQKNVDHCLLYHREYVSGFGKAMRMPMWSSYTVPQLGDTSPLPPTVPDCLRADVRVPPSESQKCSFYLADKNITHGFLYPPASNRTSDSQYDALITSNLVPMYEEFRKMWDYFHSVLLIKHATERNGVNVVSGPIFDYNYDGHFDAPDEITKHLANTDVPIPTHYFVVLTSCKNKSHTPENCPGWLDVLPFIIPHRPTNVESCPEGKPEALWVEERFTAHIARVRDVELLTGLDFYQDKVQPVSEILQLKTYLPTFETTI

human ENPP1 = target: T2, human ENPP1 (Homo sapiens, UniProt P22413); assay: ENPP1 assay with ATP substrate (Transcreener AMP2/GMP2 TR-FRET); assay type: biochemical; details: 1 hour at room temperature
T2 construct: made in house
T2 sequence (P22413 1-925): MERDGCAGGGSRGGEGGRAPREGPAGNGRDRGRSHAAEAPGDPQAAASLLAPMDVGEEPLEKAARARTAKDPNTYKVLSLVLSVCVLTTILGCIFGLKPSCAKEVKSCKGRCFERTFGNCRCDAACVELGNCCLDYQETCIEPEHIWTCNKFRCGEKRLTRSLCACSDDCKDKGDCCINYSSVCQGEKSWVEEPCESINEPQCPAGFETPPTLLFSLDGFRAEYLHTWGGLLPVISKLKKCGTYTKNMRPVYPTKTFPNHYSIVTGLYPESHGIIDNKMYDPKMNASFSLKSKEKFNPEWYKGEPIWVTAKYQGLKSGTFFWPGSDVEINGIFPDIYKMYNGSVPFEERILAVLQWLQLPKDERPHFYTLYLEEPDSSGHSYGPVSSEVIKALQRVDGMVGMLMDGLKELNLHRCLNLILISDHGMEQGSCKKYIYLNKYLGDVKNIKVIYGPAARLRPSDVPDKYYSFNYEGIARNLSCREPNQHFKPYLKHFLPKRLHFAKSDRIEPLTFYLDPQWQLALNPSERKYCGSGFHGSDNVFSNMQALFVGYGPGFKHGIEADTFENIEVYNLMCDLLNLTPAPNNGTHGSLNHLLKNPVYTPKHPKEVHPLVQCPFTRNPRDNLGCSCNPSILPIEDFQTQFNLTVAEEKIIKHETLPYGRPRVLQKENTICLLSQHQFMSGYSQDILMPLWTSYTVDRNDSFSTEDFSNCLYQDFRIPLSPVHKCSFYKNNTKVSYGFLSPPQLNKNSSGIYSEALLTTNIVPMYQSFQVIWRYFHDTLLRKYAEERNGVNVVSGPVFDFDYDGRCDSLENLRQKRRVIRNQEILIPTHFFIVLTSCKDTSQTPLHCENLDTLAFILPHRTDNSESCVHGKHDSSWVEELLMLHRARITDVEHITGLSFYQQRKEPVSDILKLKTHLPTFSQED
From the text: Example B1: ENPP1 Assay with ATP Substrate
Ectonucleotide pyrophosphatase/phosphodiesterase 1 (ENPP1) hydrolyzes ATP, breaking it down into 5′-AMP and pyrophosphate. The 5′-AMP formed from the reaction is detected by Transcreener® AMP2/GMP2 TR-FRET Assay (Bellbrook), containing AMP-tracer (HiLyte 647) and anti-AMP Terbium (Tb) donor. 5′-AMP generated in the reaction competes with AMP-tracer for binding with Anti-AMP Tb donor, and decreases TR-FRET signal.
Different concentrations of ENPP1 inhibitors are added to dry assay plate, followed by 2 μl 300 nM ATP. The reaction is initiated with the addition of 2 μl 8.5 μM human ENPP1 (generated by SBP Protein group). The assay reaction mixture contains a buffer of 50 mM Tris, pH 7.5, 1 mM TCEP, 2 mM MgCl2, 0.005% Tween 20, and 1% DMSO. The reaction is stopped after 1 hour at room temperature by adding 2 μL of 2 nM AMP-tracer and 2 μl of 2 nM Anti-AMP Tb donor in the 50 mM Tris, pH 7.5, buffer containing 20 mM EDTA and 0.1% Prionex. After 2 hour additional incubation at room temperature, the generated signal is measured using BMG Lab PHERASTAR instrument. 100% activity control samples (containing enzyme, substrate, buffer: MAX) and no enzyme control samples (containing substrate and buffer: MIN) are utilized to calculate percent inhibition (%) for each compound concentration well (COMPOUND) as follows.
The IC50 values are determined by fitting the inhibition curves with 2-parameter variable slope model in Graphpad Prism software using percent inhibition vs compound concentration data: […]

Row | Compound | IC50 (ENPP3) | IC50 (human ENPP1)
1 | CCN(c1nc(NCc2ccc(S(N)(=O)=O)cc2)c2c(-c3ccccc3)csc2n1)C(C)(C)CO [Example 1.53, 4-((2-(N-Ethyl-N-(1-hydroxy-2-methylpropan-2-yl)amino)-5-phenylthieno[2,3-d]pyrimidin-4-yl)aminomethyl)benzenesulfonamide] | 0.1 to 1 µM | 0.1 to 1 µM
2 | Cc1csc2c(N3CCC(NCCCc4ccc(C#N)cc4)CC3)ncnc12 [Example 3.6, 4-(3-((1-(7-Methylthieno[3,2-d]pyrimidin-4-yl)piperidin-4-yl)amino)propyl)benzonitrile] | > 20 µM | 0.1 to 1 µM
3 | Cc1csc2c(N3CCC(NCCCc4ccncc4Cl)CC3)ncnc12 [Example 3.13, N-(3-(3-Chloropyridin-4-yl)propyl)-1-(7-methylthieno[3,2-d]pyrimidin-4-yl)piperidin-4-amine] | > 20 µM | 0.1 to 1 µM
4 | Cc1csc2c(N3CCC(NCCCc4ccncc4)C3)ncnc12 (stereo not shown) [Example 3.29, 1-(7-Methylthieno[3,2-d]pyrimidin-4-yl)-N-(3-(pyridin-4-yl)propyl)pyrrolidin-3-amine] | > 20 µM | 0.1 to 1 µM
5 | Cc1cc(S(N)(=O)=O)ccc1CNc1nc(-c2ccccn2)nc2scc(-c3ccccc3)c12 [Example 1.15, 3-Methyl-4-(((5-phenyl-2-(pyridin-2-yl)thieno[2,3-d]pyrimidin-4-yl)amino)methyl)-benzenesulfonamide] | 0.1 to 1 µM | 0.1 to 1 µM
6 | Cn1ncc2c(NCc3ccc(S(N)(=O)=O)s3)nc(-c3ccccn3)nc21 [Example 2.24, 5-(((1-Methyl-6-(pyridin-2-yl)-1H-pyrazolo[3,4-d]pyrimidin-4-yl)amino)methyl)thiophene-2-sulfonamide] | 0.1 to 1 µM | 0.1 to 1 µM
7 | Cc1noc2ncnc(NCc3ccc(S(N)(=O)=O)cc3)c12 [Example 2.59, 4-(((3-Methylisoxazolo[5,4-d]pyrimidin-4-yl)amino)methyl)benzenesulfonamide] | 1 to 20 µM | 1 to 20 µM
8 | NS(=O)(=O)c1ccc(CNc2ncnc3c2cnn3-c2ccccc2)cc1 [Example 2.38, 4-(((1-Phenyl-1H-pyrazolo[3,4-d]pyrimidin-4-yl)amino)methyl)benzenesulfonamide] | 1 to 20 µM | 1 to 20 µM
9 | Cn1ncc2c(NCc3ccc(S(N)(=O)=O)cc3)nncc21 [Example 2.56, 4-(((1-Methyl-1H-pyrazolo[3,4-d]pyridazin-4-yl)amino)methyl)benzenesulfonamide] | > 20 µM | > 20 µM
10 | CC(Nc1ncnc2scc(-c3ccccc3)c12)c1ccc(S(N)(=O)=O)cc1 (stereo not shown) [Example 1.65, 4-(1-(5-Phenylthieno[2,3-d]pyrimidin-4-yl)aminoethyl)benzenesulfonamide] | 1 to 20 µM | 1 to 20 µM
11 | Cn1ncc2c(NCc3ccc(S(N)(=O)=O)cc3)cc(N3CCCC3)nc21 [Example 2.77, 4-(((1-Methyl-6-(pyrrolidin-1-yl)-1H-pyrazolo[3,4-b]pyridin-4-yl)amino)methyl)-benzenesulfonamide] | 0.1 to 1 µM | 1 to 20 µM
12 | NS(=O)(=O)c1ccc(CNc2nc(-c3ccccn3)nc3scc(-c4ccccc4)c23)cc1F [Example 1.13, 2-Fluoro-4-(((5-phenyl-2-(pyridin-2-yl)thieno[2,3-d]pyrimidin-4-yl)amino)methyl)benzenesulfonamide] | 0.1 to 1 µM | < 0.1 µM
13 | Cc1ccc(CCCNC2CCN(c3ncnc4c(C)csc34)CC2)cc1 [Example 3.4, 1-(7-Methylthieno[3,2-d]pyrimidin-4-yl)-N-(3-(p-tolyl)propyl)piperidin-4-amine] | > 20 µM | 0.1 to 1 µM
14 | CN(Cc1ccccc1)c1nc(NCc2ccc(S(N)(=O)=O)cc2)c2cnn(C)c2n1 [Example 2.32, 4-(((6-(Benzyl(methyl)amino)-1-methyl-1H-pyrazolo[3,4-d]pyrimidin-4-yl)amino)methyl)-benzenesulfonamide] | 0.1 to 1 µM | > 20 µM
15 | CNc1nc(NCc2ccc(S(N)(=O)=O)cc2)c2c(-c3ccccc3)csc2n1 [Example 1.42, 4-(((2-(Methylamino)-5-phenylthieno[2,3-d]pyrimidin-4-yl)amino)methyl)-benzenesulfonamide] | < 0.1 µM | < 0.1 µM
16 | CN(c1ccccc1)c1nc(NCc2ccc(S(N)(=O)=O)cc2)c2cnn(C)c2n1 [Example 2.36, 4-(((1-Methyl-6-(methyl(phenyl)amino)-1H-pyrazolo[3,4-d]pyrimidin-4-yl)amino)methyl)-benzenesulfonamide] | 0.1 to 1 µM | > 20 µM
17 | CCOc1nc(NCc2ccc(S(N)(=O)=O)cc2)c2cnn(C)c2n1 [Example 2.93, 4-((6-Ethoxy-1-methyl-1H-pyrazolo[3,4-d]pyrimidin-4-yl)aminomethyl)-benzenesulfonamide] | 0.1 to 1 µM | < 0.1 µM
18 | Cn1ncc2c(NCc3ccc(S(N)(=O)=O)cc3F)nc(Cl)nc21 [Example 2.140, 4-(((6-Chloro-1-methyl-1H-pyrazolo[3,4-d]pyrimidin-4-yl)amino)methyl)-3-fluorobenzenesulfonamide] | 0.1 to 1 µM | 0.1 to 1 µM
19 | Cc1cc(CCCNC2CCN(c3ncnc4c(C)csc34)CC2)ccn1 [Example 3.30, N-(3-(2-Methylpyridin-4-yl)propyl)-1-(7-methylthieno[3,2-d]pyrimidin-4-yl)piperidin-4-amine] | > 20 µM | 0.1 to 1 µM
20 | Cc1cc(S(N)(=O)=O)ccc1CNc1ccnc2c1cnn2C [Example 2.69, 3-Methyl-4-(((1-methyl-1H-pyrazolo[3,4-b]pyridin-4-yl)amino)methyl)-benzenesulfonamide] | 1 to 20 µM | 0.1 to 1 µM
21 | Fc1ccc(CCCNC2CCN(c3ncnc4ccsc34)CC2)cc1 [Example 3.47, N-(3-(4-Fluorophenyl)propyl)-1-(thieno[3,2-d]pyrimidin-4-yl)piperidin-4-amine] | > 20 µM | 1 to 20 µM
22 | COc1cc(CCC(=O)NC2CCN(c3ncnc4c(C)csc34)CC2)ccn1 [Example 3.8] | > 20 µM | 1 to 20 µM
23 | COc1nc(NCc2ccc(S(N)(=O)=O)s2)c2cnn(C)c2n1 [Example 2.95, 5-((6-Methoxy-1-methyl-1H-pyrazolo[3,4-d]pyrimidin-4-yl)aminomethyl)thiophene-2-sulfonamide] | 0.1 to 1 µM | 0.1 to 1 µM
